Patent US20110028686A1, “Protein binding miniature proteins” (Yale University, priority 2000, published 2011)
Square brackets hold non-standard residues; d marks the D form. Ends that are not written are not given here. Peptide text beside a SMILES is read from it. * marks the point of attachment. Fluorescein(5-NHCOCH2) = O=C(C*)Nc1ccc2c(c1)C(=O)OC21c2ccc(O)cc2Oc2cc(O)ccc21; pS = N[C@@H](COP(=O)(O)O)C(=O)O; Sar = CNCC(=O)O

Key:
catalytic subunit of PKA = catalytic subunit of PKA (Homo sapiens, UniProt P17612); assay: Fluorescence polarization, affinity for PKA catalytic subunit; format: binding
CBP KIX wild type = target: T1, CBP KIX wild type (Mus musculus, UniProt P45481); assay: Equilibrium fluorescence polarization, wild type CBP KIX; format: binding; conditions: 25° C.
T1 construct: made in house; host or cells: E. coli BL21(DE3) pArg
T1 sequence (P45481 586-665 limits assumed): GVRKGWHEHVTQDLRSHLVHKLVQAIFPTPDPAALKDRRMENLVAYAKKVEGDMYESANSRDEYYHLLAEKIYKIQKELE

Bcl-2 = Bcl-2 (Homo sapiens, UniProt P10415); assay: Bcl-2 binding by fluorescence emission of fluorescein-labeled peptide; conditions: read-out: Kd for binding to Bcl-2, 4° C., PBS
Bcl-2, sequence (P10415 1-205): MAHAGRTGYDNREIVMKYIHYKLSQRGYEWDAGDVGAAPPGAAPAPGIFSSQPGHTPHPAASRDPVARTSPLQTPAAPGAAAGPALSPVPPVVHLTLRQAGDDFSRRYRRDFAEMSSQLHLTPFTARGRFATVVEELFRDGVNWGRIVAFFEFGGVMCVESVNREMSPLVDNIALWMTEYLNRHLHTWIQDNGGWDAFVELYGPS

[1] = test system: cGMP-dependent protein kinase (PKG); assay: Phosphotransferase assay, PKG; format: biochemical; conditions: 1 up to 5 μM
Akt kinase (PKB) = Akt kinase (PKB) (Homo sapiens, UniProt P31749); assay: Phosphotransferase assay, PKB; format: biochemical; conditions: 1-K252a up to 100 nM; 1 up to 5 μM
Akt kinase (PKB), sequence (P31749 whole entry, species assumed): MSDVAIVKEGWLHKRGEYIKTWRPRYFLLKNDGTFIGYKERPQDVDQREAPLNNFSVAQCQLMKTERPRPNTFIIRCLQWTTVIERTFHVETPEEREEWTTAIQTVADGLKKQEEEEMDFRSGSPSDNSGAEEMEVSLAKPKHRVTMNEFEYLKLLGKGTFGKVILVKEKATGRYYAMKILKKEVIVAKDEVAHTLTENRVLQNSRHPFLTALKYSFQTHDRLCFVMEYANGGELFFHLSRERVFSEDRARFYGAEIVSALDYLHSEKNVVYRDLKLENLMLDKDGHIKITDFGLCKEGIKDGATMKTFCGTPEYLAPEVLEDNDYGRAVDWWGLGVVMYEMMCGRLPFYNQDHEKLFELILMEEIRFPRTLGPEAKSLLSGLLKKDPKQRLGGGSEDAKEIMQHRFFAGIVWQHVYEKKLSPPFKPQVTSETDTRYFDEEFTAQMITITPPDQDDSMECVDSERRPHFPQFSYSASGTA

[2] = target: protein kinase Cα (PKC-α) (Homo sapiens, UniProt P17252); assay: Phosphotransferase assay, PKC-α; format: biochemical; conditions: 1-K252a up to 100 nM; 1 up to 5 μM
[3] = test system: Ca++/calmodulin kinase II (CamKII); assay: Phosphotransferase assay, CamKII; format: biochemical; conditions: 1-K252a up to 100 nM; 1 up to 5 μM

CC[C@H](C)[C@H](NC(=O)[C@H](C)NC(=O)[C@H](CC(N)=O)NC(=O)[C@H](CCCNC(=N)N)NC(=O)[C@H](CCCNC(=N)N)NC(=O)CNC(=O)[C@@H](NC(=O)[C@@H](NC(=O)CNC(=O)[C@H](CC(C)C)NC(=O)[C@H](Cc1ccc(O)cc1)NC(=O)[C@@H](NC(=O)[C@H](Cc1ccccc1)NC(=O)[C@H](CC(C)C)NC(=O)[C@H](C)NC(=O)[C@H](Cc1ccc(O)cc1)NC(=O)[C@@H](NC(=O)[C@H](Cc1ccccc1)NC(=O)[C@H](CCCNC(=N)N)NC(=O)[C@@H](NC(=O)[C@H](CC(C)C)NC(=O)[C@H](CC(=O)O)NC(=O)[C@H](CCC(=O)O)NC(=O)[C@@H](NC(=O)[C@@H]1CCCN1C(=O)[C@H](C)NC(=O)[C@H](CC(=O)O)NC(=O)[C@H](CC(=O)O)NC(=O)CNC(=O)[C@@H]1CCCN1C(=O)[C@H](Cc1ccc(O)cc1)NC(=O)[C@@H](NC(=O)[C@@H]1CCCN1C(=O)[C@H](CCC(N)=O)NC(=O)[C@H](CO)NC(=O)[C@@H]1CCCN1C(=O)CN)[C@@H](C)O)C(C)C)[C@@H](C)CC)[C@@H](C)O)[C@@H](C)CC)C(C)C)C(C)C)C(=O)N[C@@H](Cc1c[nH]cn1)C(=O)N[C@@H](CC(=O)O)C(=O)N[C@@H](CSCC(=O)Nc1ccc2c(c1)C(=O)OC21c2ccc(O)cc2Oc2cc(O)ccc21)C(N)=O [2^Flu] (H-GPSQPTYPGDDAPVEDLIRFTYALFIYLGVVGRRNAIHDC(Fluorescein(5-NHCOCH2))-NH2; N-terminus and C-terminus assumed)
Kd (catalytic subunit of PKA; presence of 100 μM ATP): 570 ± 123 nM

CC[C@H](C)[C@H](NC(=O)[C@H](Cc1ccc(O)cc1)NC(=O)[C@H](Cc1ccccc1)NC(=O)[C@H](Cc1ccccc1)NC(=O)[C@H](COP(=O)(O)O)NC(=O)[C@H](CC(C)C)NC(=O)[C@H](CCCNC(=N)N)NC(=O)[C@H](CCCNC(=N)N)NC(=O)[C@@H](NC(=O)[C@@H]1CCCN1C(=O)[C@H](C)NC(=O)[C@H](CC(=O)O)NC(=O)[C@H](CC(=O)O)NC(=O)CNC(=O)[C@H](C)NC(=O)[C@H](Cc1ccc(O)cc1)NC(=O)[C@@H](NC(=O)[C@@H]1CCCN1C(=O)[C@H](CCC(N)=O)NC(=O)[C@H](CO)NC(=O)[C@@H]1CCCN1C(=O)CN)[C@@H](C)O)C(C)C)C(=O)N[C@@H](CC(C)C)C(=O)N[C@@H](CC(C)C)C(=O)N[C@@H](CC(=O)O)C(=O)N[C@@H](CC(C)C)C(=O)N[C@@H](Cc1ccc(O)cc1)C(=O)N[C@@H](CC(C)C)C(=O)N[C@@H](CC(=O)O)C(=O)N[C@@H](C)C(=O)N1CCC[C@H]1C(=O)NCC(=O)N[C@H](C(=O)N[C@@H](CSCC(=O)Nc1ccc2c(c1)C(=O)OC21c2ccc(O)cc2Oc2cc(O)ccc21)C(N)=O)C(C)C [P8A] (H-GPSQPTYAGDDAPVRRL[pS]FFYILLDLYLDAPGVC(Fluorescein(5-NHCOCH2))-NH2)
Kd (CBP KIX wild type): 1070 ± 80 nM

CC[C@H](C)[C@H](NC(=O)[C@H](Cc1ccc(O)cc1)NC(=O)[C@H](Cc1ccccc1)NC(=O)[C@H](Cc1ccccc1)NC(=O)[C@H](COP(=O)(O)O)NC(=O)[C@H](CC(C)C)NC(=O)[C@H](CCCNC(=N)N)NC(=O)[C@H](CCCNC(=N)N)NC(=O)[C@@H](NC(=O)[C@@H]1CCCN1C(=O)[C@H](C)NC(=O)[C@H](CC(=O)O)NC(=O)[C@H](CC(=O)O)NC(=O)CNC(=O)CN(C)C(=O)[C@H](Cc1ccc(O)cc1)NC(=O)[C@@H](NC(=O)[C@@H]1CCCN1C(=O)[C@H](CCC(N)=O)NC(=O)[C@H](CO)NC(=O)[C@@H]1CCCN1C(=O)CN)[C@@H](C)O)C(C)C)C(=O)N[C@@H](CC(C)C)C(=O)N[C@@H](CC(C)C)C(=O)N[C@@H](CC(=O)O)C(=O)N[C@@H](CC(C)C)C(=O)N[C@@H](Cc1ccc(O)cc1)C(=O)N[C@@H](CC(C)C)C(=O)N[C@@H](CC(=O)O)C(=O)N[C@@H](C)C(=O)N1CCC[C@H]1C(=O)NCC(=O)N[C@H](C(=O)N[C@@H](CSCC(=O)Nc1ccc2c(c1)C(=O)OC21c2ccc(O)cc2Oc2cc(O)ccc21)C(N)=O)C(C)C [P8Z] (H-GPSQPTY[Sar]GDDAPVRRL[pS]FFYILLDLYLDAPGVC(Fluorescein(5-NHCOCH2))-NH2)
Kd (CBP KIX wild type): 780 ± 50 nM

CC[C@H](C)[C@H](NC(=O)[C@H](Cc1ccc(O)cc1)NC(=O)[C@H](Cc1ccccc1)NC(=O)[C@H](Cc1ccccc1)NC(=O)[C@H](COP(=O)(O)O)NC(=O)[C@H](CC(C)C)NC(=O)[C@H](CCCNC(=N)N)NC(=O)[C@H](CCCNC(=N)N)NC(=O)[C@@H](NC(=O)[C@@H]1CCCN1C(=O)[C@H](C)NC(=O)[C@H](CC(=O)O)NC(=O)[C@H](CC(=O)O)NC(=O)CNC(=O)[C@@H]1CCCN1C(=O)[C@H](Cc1ccc(O)cc1)NC(=O)[C@@H](NC(=O)[C@@H]1CCCN1C(=O)[C@H](CCC(N)=O)NC(=O)[C@H](CO)NC(=O)[C@@H]1CCCN1C(=O)CN)[C@@H](C)O)C(C)C)C(=O)N[C@@H](CC(C)C)C(=O)N[C@@H](CC(C)C)C(=O)N[C@@H](CC(=O)O)C(=O)N[C@@H](CC(C)C)C(=O)N[C@@H](C)C(=O)N[C@@H](CC(C)C)C(=O)N[C@@H](CC(=O)O)C(=O)N[C@@H](C)C(=O)N1CCC[C@H]1C(=O)NCC(=O)N[C@H](C(=O)N[C@@H](CSCC(=O)Nc1ccc2c(c1)C(=O)OC21c2ccc(O)cc2Oc2cc(O)ccc21)C(N)=O)C(C)C [Y27A] (H-GPSQPTYPGDDAPVRRL[pS]FFYILLDLALDAPGVC(Fluorescein(5-NHCOCH2))-NH2)
Kd (CBP KIX wild type): 3090 ± 180 nM

CC[C@H](C)[C@H](NC(=O)[C@H](CCC(=O)O)NC(=O)[C@H](CC(=O)O)NC(=O)CNC(=O)[C@H](Cc1ccccc1)NC(=O)[C@H](Cc1ccc(O)cc1)NC(=O)[C@H](CCCNC(=N)N)NC(=O)[C@H](CC(C)C)NC(=O)[C@H](CC(C)C)NC(=O)[C@H](CCCNC(=N)N)NC(=O)CNC(=O)[C@@H](NC(=O)[C@H](Cc1ccccc1)NC(=O)[C@H](CCCNC(=N)N)NC(=O)[C@@H](NC(=O)[C@H](CC(C)C)NC(=O)[C@H](CC(=O)O)NC(=O)[C@H](CCC(=O)O)NC(=O)[C@@H](NC(=O)[C@@H]1CCCN1C(=O)[C@H](C)NC(=O)[C@H](CC(=O)O)NC(=O)[C@H](CC(=O)O)NC(=O)CNC(=O)[C@@H]1CCCN1C(=O)[C@H](Cc1ccc(O)cc1)NC(=O)[C@@H](NC(=O)[C@@H]1CCCN1C(=O)[C@H](CCC(N)=O)NC(=O)[C@H](CO)NC(=O)[C@@H]1CCCN1C(=O)CN)[C@@H](C)O)C(C)C)[C@@H](C)CC)C(C)C)C(=O)N[C@@H](CC(N)=O)C(=O)N[C@@H](CCCNC(=N)N)C(=O)N[C@@H](CCCNC(=N)N)C(N)=O [p4100] (H-GPSQPTYPGDDAPVEDLIRFVGRLLRYFGDEINRR-NH2)
Kd (Bcl-2): 401 ± 40 nM

CC[C@H](C)[C@H](NC(=O)[C@H](CC(=O)O)NC(=O)[C@H](CC(=O)O)NC(=O)CNC(=O)[C@H](Cc1ccccc1)NC(=O)[C@H](Cc1ccc(O)cc1)NC(=O)[C@H](C)NC(=O)[C@H](CC(C)C)NC(=O)[C@H](CC(C)C)NC(=O)[C@H](CCCNC(=N)N)NC(=O)CNC(=O)[C@@H](NC(=O)[C@H](Cc1ccccc1)NC(=O)[C@H](CCCNC(=N)N)NC(=O)[C@@H](NC(=O)[C@H](CC(C)C)NC(=O)[C@H](CC(=O)O)NC(=O)[C@H](CCC(=O)O)NC(=O)[C@@H](NC(=O)[C@@H]1CCCN1C(=O)[C@H](C)NC(=O)[C@H](CC(=O)O)NC(=O)[C@H](CC(=O)O)NC(=O)CNC(=O)[C@@H]1CCCN1C(=O)[C@H](Cc1ccc(O)cc1)NC(=O)[C@@H](NC(=O)[C@@H]1CCCN1C(=O)[C@H](CCC(N)=O)NC(=O)[C@H](CO)NC(=O)[C@@H]1CCCN1C(=O)CN)[C@@H](C)O)C(C)C)[C@@H](C)CC)C(C)C)C(=O)N[C@@H](CC(N)=O)C(=O)N[C@@H](CCCNC(=N)N)C(=O)N[C@@H](CCCNC(=N)N)C(=O)N[C@@H](Cc1ccc(O)cc1)C(=O)N[C@@H](CSCC(=O)Nc1ccc2c(c1)C(=O)OC21c2ccc(O)cc2Oc2cc(O)ccc21)C(N)=O [p4101] (H-GPSQPTYPGDDAPVEDLIRFVGRLLAYFGDDINRRYC(Fluorescein(5-NHCOCH2))-NH2)
Kd (Bcl-2): 811 ± 20 nM

CC[C@H](C)[C@H](NC(=O)[C@H](Cc1ccc(O)cc1)NC(=O)[C@H](CCCNC(=N)N)NC(=O)[C@H](CC(C)C)NC(=O)[C@H](CCCNC(=N)N)NC(=O)[C@H](CO)NC(=O)[C@@H](NC(=O)[C@H](Cc1ccccc1)NC(=O)[C@H](CCCNC(=N)N)NC(=O)[C@@H](NC(=O)[C@H](CC(C)C)NC(=O)[C@H](CC(=O)O)NC(=O)[C@H](CCC(=O)O)NC(=O)[C@@H](NC(=O)[C@@H]1CCCN1C(=O)[C@H](C)NC(=O)[C@H](CC(=O)O)NC(=O)[C@H](CC(=O)O)NC(=O)CNC(=O)[C@@H]1CCCN1C(=O)[C@H](Cc1ccc(O)cc1)NC(=O)[C@@H](NC(=O)[C@@H]1CCCN1C(=O)[C@H](CCC(N)=O)NC(=O)[C@H](CO)NC(=O)[C@@H]1CCCN1C(=O)CN)[C@@H](C)O)C(C)C)[C@@H](C)CC)C(C)C)C(=O)N[C@@H](C)C(=O)N[C@@H](CC(=O)O)C(=O)N[C@@H](CC(C)C)C(=O)N[C@H](C(=O)N[C@@H](CC(N)=O)C(=O)N[C@@H](CCCNC(=N)N)C(=O)N[C@@H](CCCNC(=N)N)C(=O)N[C@@H](Cc1ccc(O)cc1)C(=O)N[C@@H](CSCC(=O)Nc1ccc2c(c1)C(=O)OC21c2ccc(O)cc2Oc2cc(O)ccc21)C(N)=O)[C@@H](C)CC [p4102] (H-GPSQPTYPGDDAPVEDLIRFVSRLRYIADLINRRYC(Fluorescein(5-NHCOCH2))-NH2)
Kd (Bcl-2): 3700 ± 1400 nM

GPSQPTYPGDDAPVEDLIRFYNDLTYYLFVVSGRTGRRNAIHDC(Fluorescein(5-NHCOCH2))-NH2 (C-terminus assumed) [1^Flu]
fold lower stability of PKA complex than PKA·PKI5-24^Flu (catalytic subunit of PKA; 100 μM ATP): 3 fold | Kd (catalytic subunit of PKA; absence of ATP): 230 ± 34 nM | Kd (catalytic subunit of PKA; presence of 100 μM ATP): 99 ± 39 nM

GPSQPTYPGDDAPVEDLIRFYNDLTYYLFVVSGRTGRRNAIHDC-NH2 (C-terminus assumed) [compound 1]
inhibition of PKG phosphotransferase activity [1]: inhibiting no other kinase tested | inhibition of PKB phosphotransferase activity (Akt kinase (PKB)): inhibiting no other kinase tested | inhibition of PKC-α phosphotransferase activity [2]: inhibiting no other kinase tested | inhibition of CamKII phosphotransferase activity [3]: inhibiting no other kinase tested
